SMILES	melting point
ClCCCOc1ccc2ccccc2c1	46 to 49 °C
CCOc1ccc(-n2cnnc2C(F)(F)F)cc1	70 °C
COc1c(C(=O)OCc2ccccc2)nc(-c2ccc(Cl)c(OC)c2F)c(F)c1N	119 °C
CSc1ccc(C2=C(c3ccc(C(F)(F)F)cc3)CCC2)cc1	60 to 61.5 °C
Cc1ccc(CC(=O)NCc2cccc3c2C(=O)N(C2CCC(=O)NC2=O)C3=O)cc1F (stereo not given)	148 to 150 °C
OCCC#Cc1ccc2c(-c3ccc(Cl)cc3)nsc2c1	128 to 129 °C
Oc1c(F)cc(Oc2ncc(C(F)(F)F)cc2F)cc1F	125 to 128 °C
COC1(OC)CCN(c2cc3c(cc2F)c(=O)c(C(=O)O)cn3-c2ccc(F)cc2F)C1	228 to 230 °C
O=C(Cl)CCCC(=O)Cl	60.6 to 61.4 °C
CC(C)n1c(-c2ccccc2)cc(-c2ccc(F)cc2)c1C=O	118 to 122 °C
Cn1c(NC(=O)OCc2ccccc2)c(-c2ccccc2)c2cc(Cl)ccc21	164 °C
CCNC(=O)c1c(Cl)cccc1[Si](C)(C)C1CC2CCC1C2 (stereo not given)	124 to 125 °C
CSC(=S)N/N=C/c1ccc(-c2ncn(-c3ccc(OC(F)(F)F)cc3)n2)cc1	204 to 206 °C
Cn1cncc1C(N)(c1ccc(C#N)cc1)c1ccc2c(c1)c(-c1cccc(Cl)c1)cc(=O)n2C (stereo not given)	245 °C
COc1cc2cc3c(Cl)ncnc3cc2cc1OCCN1CCOCC1	166 to 168 °C
COCCOc1cc(NC(=O)OC(C)(C)C)c(N)cc1C#Cc1ccccc1	105 to 107 °C
Cc1cccc(C)c1NC(=O)N(Cc1ccccc1)CC(c1ccccc1)c1ccccc1	205 to 208 °C
CC(C)(C)c1ccc(C(=O)Nc2cn3nc(-c4cnn(CCO)c4)ccc3n2)cc1	226 to 229 °C
O=[N+]([O-])c1ccc(F)c(CNCCO)c1	93 to 94 °C
CCCCOc1cc(C=CC(=O)O)n(Cc2ccc(Cl)cc2Cl)n1	176 to 179 °C
Nc1nccc(Oc2ccc3c(C(=O)Nc4cccc(C(F)(F)F)c4)cccc3c2)n1	218 °C
Cc1ccc2oc([N+](=O)[O-])c(-c3ccccc3)c2c1	144 to 146 °C
NC(=O)c1ccc2nc3ccsc3c(=O)n2c1	319 to 320 °C
CCOC(=O)CNS(=O)(=O)C(F)(F)F	73 to 75 °C
CCCCCCCCCCCCSC(C)(C)C(=O)O	62 to 64 °C

SMILES	melting point
CCCNc1nc(N)c2ncn(C3CCCCC3)c2n1	155 to 156 °C
CCS(=O)(=O)Nc1cc(-n2nc3n(c2=O)CCCC3)c(F)cc1C(N)=S	220 °C
NC(=O)/C(=N/O)c1ccccc1Oc1ccccc1	157 to 159 °C
COc1c(O)ccc(C(=O)c2ccccc2)c1F	126 to 128 °C
CCC(CC)(CC(=O)Nc1ccc2ccc(OCc3ccc4cccc(F)c4n3)cc2c1)C(=O)O	141 to 142 °C
CCOC(=O)C1=C(C)NC(C)=C(C(=O)OCC)C1c1cccc(F)c1	149 to 150 °C
CC(=O)NC(C)Cc1ccc(OC(C)=O)cc1 (stereo not given)	97.5 to 99 °C
O=C1CCC(c2cc(F)c(F)c(F)c2)CC1	124 °C
CCn1ncc(CC(=O)O)c1OCCCc1cn(-c2ccc(C(F)(F)F)cn2)nc1C(C)C	120 to 121 °C
CS(=O)(=O)c1ccc(CCNC(=O)C(N)=O)cc1OC1CCCC1	185 to 186 °C
CCCC(O)C1(c2onc(-c3ccc(O)cc3)c2-c2ccccc2)CC1 (stereo not given)	139 to 140 °C
CN1C(=O)C(C2=COc3ccccc3O2)=C(c2cn(C(=O)OC(C)(C)C)c3ccc(OCc4ccccc4)cc23)C1=O	93 °C
CC(C)(C)Oc1ccc(OC(=O)N2CCOCC2)cc1	129 to 130 °C
NC(=O)c1c(Cl)c(-c2ccccc2)n2c1CN(S(=O)(=O)Nc1ccccc1)CC2	207 to 208 °C
O=C(Nc1cccc(Cl)c1)c1c(C(F)(F)F)nc2c(C(F)(F)F)cccc2c1O	152 °C
COc1cccc(-c2cc(=O)cc(N3CCOCC3)o2)c1	115 to 117 °C
Cc1cnc(N2CCN(CC[C@H]3CC[C@H](NC(=O)CC4CCOCC4)CC3)CC2)c2ccoc12	206 °C
CCOC(=O)C(=O)N(C)c1cccccc1=O	70 to 71 °C
O=C(OCC(Cl)(Cl)Cl)n1ccnc1	80 °C
CC(=O)N1Cc2c(-c3noc(C4CC4)n3)ncn2-c2ccccc21	187 to 188 °C
CCOCc1cc2ccccc2oc1=Nc1ccccc1	71 to 72 °C
CCc1c(C(=O)C(N)=O)c2ccsc2n1Cc1ccccc1	90 to 92 °C
O=C(Cn1c(-c2ccc(Cl)cc2)ncc(NC(=O)OCc2ccccc2)c1=O)NC(Cc1ccccc1)C(=O)C(F)(F)F (stereo not given)	199 to 201 °C
O=C(O)C1Cc2ccccc2CN1C(=O)CCS (stereo not given)	55 to 58 °C
OC(Cc1ccncc1)(c1ccccc1)c1ccccc1	154 to 155 °C

SMILES	melting point
CCO[C@@H]1C[C@@H](C(=O)NC)N(S(=O)(=O)c2ccc(Cl)c(CBr)c2Cl)C1	122 °C
CC(=O)Nc1ccc2c(c1)Cc1cc(=O)[nH]nc1-2	> 300 °C
Nc1nc(N)c(N=O)c(OCC2CC=CCC2)n1 (stereo not given)	237 °C
CC(=O)SC(CC(=O)c1ccc(Cl)c(Cl)c1)C(=O)O (stereo not given)	102 to 105 °C
Sc1nc2cc(Cl)c(Cl)cc2s1	234 to 236 °C
Cc1cccc(-c2nc(C(C)C)[nH]c2-c2ccc(F)c(-c3cnn(C)c3)c2)n1	77 to 97 °C
CCCCCCCCCCCCCCCCCCNC(=O)O[C@H]1CCCO[C@H]1CO (relative stereo)	85 to 86 °C
CCn1cnc(N2CCc3ccccc3CC2)c(C#N)c1=O	138 to 140 °C
O=C(Cc1ccncc1)NC(Cc1ccc(Cl)c(Cl)c1)C(=O)CCc1cc(C(F)(F)F)cc(C(F)(F)F)c1 (stereo not given)	142 to 144 °C
O=C(Nc1nc(-c2ccco2)c(-c2ccncc2)s1)c1ccn(Cc2ccccc2)c(=O)c1	244 to 248 °C
Cc1ccccc1C1CCN(CCc2c[nH]c3ccccc23)CC1	111 to 112 °C
O=C1CN2Cc3cc(C(=O)c4cccnc4)ccc3N=C2N1	275 °C
N#Cc1nc(O)c(-c2cc(O)c(O)c([N+](=O)[O-])c2)nc1C#N	> 300 °C
N#Cc1cscc1Sc1ccccc1	32 to 34 °C
CCCCOc1ncc(C(C)=O)cc1-c1nn2c(CC)nc(CCC)c2c(=O)[nH]1	155 to 156 °C
CCCCCCCCCCCC(=O)OCC(COCc1ccccc1)OC(=O)CCCCCCCCCCC (stereo not given)	30 to 31 °C
CC(C)c1ccc(C2COc3cc(O)c(O)cc3C2)cc1 (stereo not given)	129 to 131 °C
CCOCc1nc2c(N)nc3cc(OCCCCCCNS(C)(=O)=O)ccc3c2n1CC(C)(C)NC(=O)NC(C)C	190 to 194 °C
FC(F)(F)C(c1ccc(Cl)cc1)C(c1ccccc1)c1ccc(OCC2CO2)cc1 (stereo not given)	141 to 144 °C
O=S1(=O)c2ccccc2N(c2ccccc2)c2ccccc21	212 to 217 °C
Cn1c(=O)n(-c2ccnc(N)c2)c2ccccc21	204 to 205 °C
Cc1nc(N2CCC(Cc3ccc(OC(F)(F)F)cc3)C2=O)sc1C(=O)NCc1cccnc1 (stereo not given)	158 to 160 °C
Cc1ccn(-c2ccc(C(=O)N3Cc4cccnc4Nc4ccccc43)c(F)c2)n1	122 to 125 °C
COc1cc(C)c(S(C)(=O)=O)cc1C(=O)O	228 °C
COc1ccc(S(=O)(=O)Nc2ncnc(Cl)c2Cc2ccccc2OC)cc1	149 to 151 °C

SMILES	melting point
O=C(Cl)c1ccc2c(c1I)OCO2	69 to 70 °C
O=C1c2cccc3cc4ccccc4c(c23)C(=O)N1CCCNCCCN1C(=O)c2cccc3cc4ccccc4c(c23)C1=O	184 °C
O=C(OC1CCCCC1)c1ccc(Cl)c([N+](=O)[O-])c1	57 to 58 °C
Cc1nc(NC(=O)c2ccccc2)sc1C(=O)NNC(=O)c1ccccc1	258 to 260 °C
O=C(O)c1sc(-c2cccc(Cl)c2)nc1O	107 to 108 °C
CC1CCC(C(C)C)C(OC(=O)C2(CC(=O)OC(C)(C)C)C(=O)N(Cc3ccc(Br)cc3F)C(=O)c3cccn32)C1 (stereo not given)	99 to 100 °C
Nc1nc(Cl)c(NC=O)c(N[C@H]2C=C[C@@H](CO)C2)n1	174 to 176 °C
Cc1cnc(-c2ccc3c(c2)c2cc(-c4ccc(Cl)cc4Cl)c(=O)n(C)c2n3C)o1	289 to 292 °C
CCCNC(=O)C1(CCCCc2ccc(NC(=O)c3ccccc3)cc2)c2ccccc2-c2ccccc21	171 to 173 °C
CCCCCCCCCCCCCCCCCCOc1ccc(NC(=O)OC(C)(C)C)cc1	66 to 67 °C
CCOC(=O)C(C#N)=Cc1ccc(NC(C)=O)cc1	187 °C
N#Cc1ccc(CO)cc1F	70 to 72 °C
CC(C)(C#N)c1cc(CCl)cc(C(C)(C)C#N)c1	119 to 121 °C
Clc1ccc(C=NC(c2ccccc2)c2ccccc2)cc1	83 to 84 °C
BrCCCN(c1ccccc1)c1ccccc1	162 to 164 °C
CNC(=O)CN(C)Cc1ccc(CCn2cnc3cc(-c4ccc(Cl)cc4)sc3c2=O)cc1	146 to 149 °C
COC(=O)[C@H](c1ccccc1Cl)N1CCc2sc(OC(=O)N(C)C)cc2C1	96 to 98 °C
O=C1NC(=O)C(Cc2ccc3cc(OCc4ccccc4F)ccc3c2)S1 (stereo not given)	150 to 152 °C
CCCCCCCCCCCCCCCCOc1ccc(OCC(=O)NCc2ccccn2)cc1	68 to 69 °C
COCc1nc2cc3c(cc2c(=O)[nH]1)C(Nc1ccc(C(=O)OC(C)(C)C)cc1)CC3 (racemic)	> 122 °C
NC(=S)NC[C@H]1CN(c2ccc(N3CCOCC3)c(F)c2)C(=O)O1	199 to 200 °C
CCn1ncc2c1ncc1c(OCCC(C)C)nc3cc(C)nn3c12	60 to 62 °C
Cc1nc(-c2ccc(Cl)cc2)c(CBr)o1	75 to 76 °C
Fc1ccc2nccc(Cl)c2c1	71 to 74 °C
CCOC(=O)CN(CP(=O)(OSc1cc(Cl)ccc1Cl)OSc1cc(Cl)ccc1Cl)C(=O)C(F)(F)F	77 to 80 °C

Reference: a melting point compilation (Tetko et al.; mined from patent text by program, amines drawn as free bases though some values may be those of a salt)
